IC50 data for 57 compounds are collected here from BindingDB's records for patent US20250289799 (Jiangsu Yahong Meditech Co., 2025).

In the assay the target is Ubiquitin carboxyl-terminal hydrolase 1/WD repeat-containing protein 48 (Homo sapiens, UniProt O94782+Q8TAF3). Briefly: In Vitro USP1  Inhibitory Activity. The protocol: Experimental Methods1) Preparation of 1× assay buffer: 1× assay buffer (modified Tris buffer) was prepared;2) Compound dilution: The compound was transferred to the assay plate by Echo.
Chain of Ubiquitin carboxyl-terminal hydrolase 1/WD repeat-containing protein 48 (O94782 whole entry): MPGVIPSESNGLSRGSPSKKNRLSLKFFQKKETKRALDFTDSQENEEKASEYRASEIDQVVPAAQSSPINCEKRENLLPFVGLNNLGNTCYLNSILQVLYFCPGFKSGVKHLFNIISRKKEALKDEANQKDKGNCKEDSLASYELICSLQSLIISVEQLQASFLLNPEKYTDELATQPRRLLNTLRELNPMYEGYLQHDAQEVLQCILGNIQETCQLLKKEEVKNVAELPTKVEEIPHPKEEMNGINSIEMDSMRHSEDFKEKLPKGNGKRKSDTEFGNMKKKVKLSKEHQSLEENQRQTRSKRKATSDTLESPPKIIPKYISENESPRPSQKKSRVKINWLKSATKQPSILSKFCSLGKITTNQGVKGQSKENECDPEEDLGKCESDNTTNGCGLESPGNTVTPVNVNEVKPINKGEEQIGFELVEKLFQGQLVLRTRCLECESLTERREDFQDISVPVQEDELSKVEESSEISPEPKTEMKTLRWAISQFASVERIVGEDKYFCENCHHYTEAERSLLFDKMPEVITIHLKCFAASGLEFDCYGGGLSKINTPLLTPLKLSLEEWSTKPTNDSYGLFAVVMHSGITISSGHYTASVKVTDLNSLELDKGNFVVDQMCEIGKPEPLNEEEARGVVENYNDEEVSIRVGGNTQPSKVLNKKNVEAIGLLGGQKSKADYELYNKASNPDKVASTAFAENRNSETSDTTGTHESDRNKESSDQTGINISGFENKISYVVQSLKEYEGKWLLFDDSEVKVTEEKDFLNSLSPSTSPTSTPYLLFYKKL
Chain of Ubiquitin carboxyl-terminal hydrolase 1/WD repeat-containing protein 48 (Q8TAF3 whole entry): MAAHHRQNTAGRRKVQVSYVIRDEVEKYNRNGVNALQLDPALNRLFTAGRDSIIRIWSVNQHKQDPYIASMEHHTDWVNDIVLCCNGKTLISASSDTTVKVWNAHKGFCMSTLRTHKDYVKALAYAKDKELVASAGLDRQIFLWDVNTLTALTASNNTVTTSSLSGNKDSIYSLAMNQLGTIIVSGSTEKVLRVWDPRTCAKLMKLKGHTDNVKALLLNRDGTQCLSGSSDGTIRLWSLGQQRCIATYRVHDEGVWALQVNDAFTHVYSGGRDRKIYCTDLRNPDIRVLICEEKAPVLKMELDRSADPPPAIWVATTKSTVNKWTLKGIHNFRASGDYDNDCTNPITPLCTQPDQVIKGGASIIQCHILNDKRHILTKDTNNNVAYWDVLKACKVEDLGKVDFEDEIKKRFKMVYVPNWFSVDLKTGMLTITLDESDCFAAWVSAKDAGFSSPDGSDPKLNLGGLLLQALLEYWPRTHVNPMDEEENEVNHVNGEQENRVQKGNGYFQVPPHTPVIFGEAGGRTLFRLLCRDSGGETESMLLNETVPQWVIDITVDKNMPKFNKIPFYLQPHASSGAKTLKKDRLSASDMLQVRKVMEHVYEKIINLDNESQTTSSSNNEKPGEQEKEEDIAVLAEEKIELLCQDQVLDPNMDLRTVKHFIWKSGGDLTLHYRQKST

pIC50: −log10 of the molar value.

As to `COc1cnc(-c2c(OC)ncnc2C2CC2)nc1NCC1CCN(c2nc(C(F)(F)F)cn2C)CC1` [US20250289799, Example 95], the negative-log IC50 (pIC50) (in general, the negative decadic logarithm of the IC50, by convention in mol/L) is 8.08.

Compound `COc1cnc(-c2c(OC)ncnc2C2CC2)nc1NCc1ccc(-c2nc(C(F)(F)F)cn2C)cc1` [US20250289799, Example 96] showed a pIC50 of 8.32.

In turn, `COc1cnc(-c2c(OC)ncnc2C2CC2)nc1NCc1ccc2c(c1)CCN(C(C)C)C2=O` [US20250289799, Example 97] showed a negative logarithm of the IC50 (pIC50) of 6.58.

Compound `COc1cnc(-c2c(OC)ncnc2C2CC2)nc1NCc1ccc(OCc2ccccn2)cc1` [US20250289799, Example 98] gave a pIC50 of 6.84.

On to `CCOCCOc1ccc(CNc2nc(-c3c(OC)ncnc3C3CC3)ncc2OC)cc1` [US20250289799, Example 99], for which the pIC50 was 7.82.

With `COc1cc(-c2nc(C(F)(F)F)cn2C)ccc1CNc1nc(-c2c(OC)ncnc2C2CC2)ncc1OC` [US20250289799, Example 100], the negative-log IC50 (pIC50) is 8.39.

For the compound `COc1cc(CNc2nc(-c3c(OC)ncnc3C3CC3)ncc2OC)ccc1-c1nc(C(F)(F)F)cn1C` [US20250289799, Example 101], the pIC50 is 7.82.

Take `COc1cc(-n2nc(C(F)(F)F)cc2C)ccc1CNc1nc(-c2c(OC)ncnc2C2CC2)ncc1OC` [US20250289799, Example 102]: the pIC50 was 8.36.

On to `COc1cc(CNc2nc(-c3c(OC)ncnc3C3CC3)ncc2OC)ccc1-n1nc(C(F)(F)F)cc1C` [US20250289799, Example 103], for which the pIC50 is 8.00. Against the preceding compound, the pIC50 is 0.36 log units lower.

`COc1cnc(-c2c(OC)ncnc2C2CC2)nc1NCC12CCC(c3nc(C(F)(F)F)cn3C)(CC1)CC2` [US20250289799, Example 104] showed a pIC50 of 8.06. The pIC50 values of the last two compounds are within 0.2 log units of each other.

Compound `COc1cnc(-c2c(OC)ncnc2C2CC2)nc1NCc1ccc(-c2nc(C)cn2C(F)F)cc1` [US20250289799, Example 105] had a pIC50 of 7.22.

With `COc1cnc(-c2c(OC)ncnc2C2CC2)nc1NCc1ccc(-c2nc(C(F)(F)F)cn2C(C)C)cc1` [US20250289799, Example 106], the pIC50 is 8.54. This pIC50 is 1.32 log units higher than that of the compound before.

For `COc1cnc(-c2c(OC)ncnc2C2CC2)nc1NCc1ccc(-c2nc(C(F)(F)F)cn2CF)cc1` [US20250289799, Example 107], the negative logarithm of the IC50 (pIC50) was 7.80.

`COc1ncnc(C2CC2)c1-c1ncc(OC(C)C)c(N(C)CC2CCN(c3nc(C(F)(F)F)cn3C)CC2)n1` [US20250289799, Example 108] had a pIC50 of 7.71.

Compound `COc1ncnc(C2CC2)c1-c1ncc(OC(C)C)c(N(C)Cc2ccc(-c3nc(C(F)(F)F)cn3C)cc2)n1` [US20250289799, Example 109] showed a pIC50 of 8.28.

In the case of `COc1ncnc(C2CC2)c1-c1ncc(OC(C)C)c(NCC2CCN(c3nc(C(F)(F)F)cn3C)CC2)n1` [US20250289799, Example 110], the negative logarithm of the IC50 (pIC50) is 7.54.

With `COc1ncnc(C2CC2)c1-c1ncc(OC(C)C)c(NCc2ccc(-c3nc(C(F)(F)F)cn3C)cc2)n1` [US20250289799, Example 111], the negative-log IC50 (pIC50) is 7.98.

Take `COc1ncnc(C2CC2)c1-c1ncc(OC(C)C)c(NCC23CCC(c4ccc(C(F)(F)F)cn4)(CC2)CC3)n1` [US20250289799, Example 112]: the pIC50 was 6.58.

Consider `COc1ncnc(C2CC2)c1-c1nc(NCc2ccc(-c3nc(C(F)(F)F)cn3C)s2)c2occc2n1` [US20250289799, Example 113], for which the pIC50 is 7.64.

`COc1ncnc(C2CC2)c1-c1nc(NCc2ccc3c(c2)CCN(C)C3=O)c2occc2n1` [US20250289799, Example 114] showed a pIC50 of 6.19.

`COc1ncnc(C2CC2)c1-c1nc(NCc2ccc3c(c2)CCN(C(C)C)C3=O)c2occc2n1` [US20250289799, Example 115] gave a pIC50 of 7.11.

In turn, `COc1ncnc(C2CC2)c1-c1nc(NCc2ccc(OCc3ccccn3)cc2)c2occc2n1` [US20250289799, Example 116] had a pIC50 of 7.71.

The compound `CCOCCOc1ccc(CNc2nc(-c3c(OC)ncnc3C3CC3)nc3ccoc23)cc1` [US20250289799, Example 117] had a pIC50 of 7.86.

Compound `COc1ncnc(C2CC2)c1-c1nc(NCc2ccc(OC3CC(OC)C3)cc2)c2occc2n1` (configuration not stated) [US20250289799, Example 118] had a negative logarithm of the IC50 (pIC50) of 7.24. This pIC50 is 0.62 log units lower than that of the compound before.

On to `COc1cc(-c2nc(C(F)(F)F)cn2C)ccc1CNc1nc(-c2c(OC)ncnc2C2CC2)nc2ccoc12` [US20250289799, Example 119], for which the negative logarithm of the IC50 (pIC50) is 8.12.

Consider `COc1cc(CNc2nc(-c3c(OC)ncnc3C3CC3)nc3ccoc23)ccc1-c1nc(C(F)(F)F)cn1C` [US20250289799, Example 120], for which the pIC50 was 8.05.

The compound `COc1cc(-n2nc(C(F)(F)F)cc2C)ccc1CNc1nc(-c2c(OC)ncnc2C2CC2)nc2ccoc12` [US20250289799, Example 121] gave a negative-log IC50 (pIC50) of 8.08.

As to `COc1cc(CNc2nc(-c3c(OC)ncnc3C3CC3)nc3ccoc23)ccc1-n1nc(C(F)(F)F)cc1C` [US20250289799, Example 122], the pIC50 was 7.89.

`COc1ncnc(C2CC2)c1-c1nc(NCc2ccc(-c3nc(C(F)F)cn3C)cc2)c2occc2n1` [US20250289799, Example 123] showed a pIC50 of 7.70.

Regarding `COc1ncnc(C2CC2)c1-c1ncc(Cl)c(NCc2ccc(-c3nc(C(F)(F)F)cn3C)cc2)n1` [US20250289799, Example 124], the pIC50 is 8.21.

With `COc1ncnc(C2CC2)c1-c1ncc(Cl)c(NCc2ccc(-c3nc(C(F)(F)F)cn3C3CC3)cc2)n1` [US20250289799, Example 125], the negative logarithm of the IC50 (pIC50) is 8.51.

`COc1ncnc(C2CC2)c1-c1ncc(Cl)c(NCc2ccc(-c3nc(C(F)(F)F)cn3CF)cc2)n1` [US20250289799, Example 126]: the negative logarithm of the IC50 (pIC50) is 7.89.

As to `[2H]C([2H])([2H])N(Cc1ccc(-c2nc(C(F)(F)F)cn2C2CC2)cc1)c1nc(-c2c(OC)ncnc2C2CC2)ncc1F` [US20250289799, Example 128], the negative-log IC50 (pIC50) was 8.59.

In turn, `[2H]C([2H])([2H])N(Cc1ccc(-c2nc(C(F)(F)F)cn2CF)cc1)c1nc(-c2c(OC)ncnc2C2CC2)ncc1F` [US20250289799, Example 130] showed a negative logarithm of the IC50 (pIC50) of 7.72.

In turn, `COc1ncnc(C2CC2)c1-c1ncc(C#N)c(NCc2ccc(-c3nc(C(F)(F)F)cn3C)cc2)n1` [US20250289799, Example 131] had a pIC50 of 8.13.

As for `C#Cc1cnc(-c2c(OC)ncnc2C2CC2)nc1NCc1ccc(-c2nc(C(F)(F)F)cn2C)cc1` [US20250289799, Example 132], the pIC50 was 8.22. This pIC50 and that of the compound before are within 0.2 log units of each other.

`COc1ncnc(C2CC2)c1-c1ncc(OC(F)F)c(NCC2CCN(c3nc(C(F)(F)F)cn3C)CC2)n1` [US20250289799, Example 133] showed a pIC50 of 7.82.

`COc1ncnc(C2CC2)c1-c1ncc(OC(F)F)c(NCc2ccc(-c3nc(C(F)(F)F)cn3C)cc2)n1` [US20250289799, Example 134] had a pIC50 of 8.49.

As to `COc1ncnc(C2CC2)c1-c1ncc(OC(F)F)c(NCc2ccc(-n3nc(C(F)(F)F)cc3C)cc2)n1` [US20250289799, Example 135], the negative logarithm of the IC50 (pIC50) is 8.49.

Turning to `COc1cc(-c2nc(C(F)(F)F)cn2C)ccc1CNc1nc(-c2c(OC)ncnc2C2CC2)ncc1OC(F)F` [US20250289799, Example 136], the pIC50 was 7.77.

As to `COc1ncnc(C2CC2)c1-c1ncc(CO)c(NCc2ccc(-c3nc(C(F)(F)F)cn3C(C)C)cc2)n1` [US20250289799, Example 137], the negative logarithm of the IC50 (pIC50) is 7.62.

In turn, `COCc1cnc(-c2c(OC)ncnc2C2CC2)nc1N(C)Cc1ccc(-c2nc(C(F)(F)F)cn2C(C)C)cc1` [US20250289799, Example 138] showed a negative-log IC50 (pIC50) of 8.05. Compared with the last compound, the pIC50 is 0.43 log units higher.

As to `C#CCN(Cc1ccc(-c2nc(C(F)(F)F)cn2C)cc1)c1nc(-c2c(OC)ncnc2C2CC2)ncc1OC` [US20250289799, Example 139], the negative logarithm of the IC50 (pIC50) is 8.28.

In turn, `COc1cnc(-c2c(OC)ncnc2C2CC2)nc1N(Cc1ccc(-c2nc(C(F)(F)F)cn2C)cc1)C1CCOC1` (configuration not stated) [US20250289799, Example 140] had a pIC50 of 7.14.

`COc1cnc(-c2c(OC)ncnc2C2CC2)nc1N(Cc1ccc(-c2nc(C(F)(F)F)cn2C)cc1)C1CC1` [US20250289799, Example 141] showed a negative logarithm of the IC50 (pIC50) of 8.02.

In turn, `COc1cnc(-c2c(OC)ncnc2C2CC2)nc1N(Cc1ccc(-c2nc(C(F)(F)F)cn2C)cc1)OC` [US20250289799, Example 142] gave a pIC50 of 7.60.

`COc1cnc(-c2cccc3ccn(C)c23)nc1NCc1ccc(-c2nc(C(F)(F)F)cn2C)cc1` [US20250289799, Example 143] showed a negative logarithm of the IC50 (pIC50) of 7.51.

Take `COc1cnc(-c2cccc3ccn(C)c23)nc1NCc1ccc(-n2nc(C(F)(F)F)cc2C)cc1` [US20250289799, Example 144]: the pIC50 is 7.16.

`COc1cnc(-c2cccc3c2N(C)CC3)nc1NCc1ccc(-c2nc(C(F)(F)F)cn2C)cc1` [US20250289799, Example 145] gave a pIC50 of 7.72.

Take `COc1cnc(-c2c(C)ncn2C(C)C)nc1NCc1ccc(-c2nc(C(F)(F)F)cn2C)cc1` [US20250289799, Example 147]: the pIC50 is 6.44. Compared with the last compound, the pIC50 is 1.28 log units lower.

Consider `Cc1ncn(C(C)C)c1-c1nc(NCc2ccc(-c3nc(C(F)(F)F)cn3C)cc2)c2occc2n1` [US20250289799, Example 149], for which the negative logarithm of the IC50 (pIC50) is 7.16. This pIC50 is 0.72 log units higher than that of the compound before.

With `Cc1ncn(C(C)C)c1-c1nc(NCC23CCC(c4ccc(C(F)(F)F)cn4)(CC2)CC3)c2occc2n1` [US20250289799, Example 150], the pIC50 was 6.37.

Regarding `COc1cnc(-c2cccnc2C2CC2)nc1N(C)CC1CCN(c2ccccn2)CC1` [US20250289799, Example 151], the negative-log IC50 (pIC50) was 7.14.

Regarding `COc1cnc(-c2cccnc2C2CC2)nc1NCC1CCN(c2nc(C(F)(F)F)cn2C)CC1` [US20250289799, Example 152], the negative logarithm of the IC50 (pIC50) is 8.12.

`COc1cnc(-c2cccnc2C2CC2)nc1NCc1ccc(-c2nc(C(F)(F)F)cn2C)cc1` [US20250289799, Example 153] had a pIC50 of 8.47. Compared with the last compound, the pIC50 is 0.35 log units higher.

`COc1cnc(-c2cccnc2C2CC2)nc1NCc1ccc(-n2nc(C(F)(F)F)cc2C)cc1` [US20250289799, Example 154]: the pIC50 is 8.21.

Compound `c1ccc(-c2ccc(CNc3nc(-c4cccnc4C4CC4)nc4ccoc34)cc2)nc1` [US20250289799, Example 155] gave a pIC50 of 7.92.
